The values below come from patent EP0540185A1, “4'-(N-substituted-N-oxide)staurosporine derivatives” (SCHERING CORPORATION, priority 1991, dated 1993).

Series [1] deals with Myosin light chain kinase (MLCK) (Homo sapiens, UniProt Q15746). As to the kind of experiment: Myosin light chain kinase (MLCK) assay. It is filed as biochemical. Particulars: MLCK substrate peptide, 10 nM calmodulin, 10 minutes. As to the method: (§1) The below listed Test Methods A and B were run in accordance with the procedures described in Bishop, W.R., Petrin, J., Wang, L., Ramesh, U., and Doll, R.J. (1990) Biochemical Pharmacology, Vol. 40,2129-2135 and Hannun et al. J. Biol. Chem. (1985), Vol. 260, 10039-10043, which are herein incorporated by reference with the following modifications.
B. Myosin Light Chain Kinase ("MLCK") Protocol
Myosin light chain kinase (MLCK) assays were conducted in accordance with the methods of the Bishop et al. and Hannun et al. articles listed above in a reaction mixture containing 30 mM MLCK substrate peptide (Lys-Lys-Arg-Pro-Gln-Arg-Ala-Thr-Ser-Asn-Val-Phe-Ser-NH₂), 10 nM calmodulin, 25 mM [g-32P]ATP; 0.1 mM Ca⁺² acetate and 10 mM Mg⁺² acetate. Reactions were stopped after 10 minutes by addition of […] of 375 mM H₃PO₄ and spotting on phosphocellulose P81 paper.

The target in series [2] is partially purified rat brain PKC. As to the kind of experiment: Mixed micellular protein kinase C (PKC) assay. The class given is biochemical. Particulars: for pIC50: histone III-S substrate, 23°C, 15 min, 2% DMSO; for MLCK/PKC: selectivity, ratio of IC50 MLCK to IC50 PKC. As to the method: as §1
A. Protein Kinase C ("PKC") Protocol
Mixed micellular protein kinase C assays were conducted in accordance with the methods described in the two articles cited just above (namely, Bishop et al, and Hannun et al), in a reaction mixture (0.25 mL total volume) containing: 20 mM Tris-HCl (pH 7.5); […] histone III-S; 10 mM MgCl₂; 5 mM [g-32P]ATP (4 x 10^6 cpm/mmol); 200 mM CaCl₂; 32 mg/mL of phosphatidylserine; 1.6 mg/mL of 1-oleoyl-2-acetylglycerol and various concentrations of compounds of this invention added from a dimethyl-sulfoxide (DMSO) stock solution. The final concentration of DMSO in the reaction was 2% w/v. Reactions were started by addition of approximately […] of partially purified rat brain PKC and allowed to proceed at 23°C for 15 min. Reactions were terminated by collection of trichloroacetic acid-precipitated phosphorylated histone on GF/C filters using a Brandel Cell Harvester (Model No. M-24-R).

Series [3] has as its system Normal Human Epidermal Keratinocyte (NHEK) Cultures. As to the kind of experiment: Inhibition of spontaneous and induced cornified envelope (CE) formation in NHEK cultures. The arrangement: CE formation induced by high calcium-containing media: unit of the concentration uncertain. The following applies: for CE formation induced by high calcium-containing media: 1.6 mM Ca+2 media. The class given is cell-based. The procedure: C. Inhidition of Spontaneous and Induced Cornified Envelope ("CE") Formation in Normal Human Epidermal Keratinocyte (NHEK) Cultures.
The data was collected in cultured NHEK cells which were grown in serum-free media to subconflurncy and then treated with DMSO (vehicle control) or various concentration of the compounds of this invention, etretinate (an antipsoriatic aromatic analog of retinoic acid) and staurosporine.
After 15 minutes, the NHEK cells were treated with DMSO (vehicle control), […] of 12-tetradecanoyl-phorbol-13-acetate ("TPA") to evaluate TPA-induced CE formation. In another experiment, the NHEK cells were refed media containing 0.15 mM Ca⁺² (control) or a high calcium-containing media, i.e., a 1.6 mM Ca⁺² media to induce CE formation by such a high calcium-containing media. After 48 hours, the cells so-treated were harvested and viable and total cells were counted. Cornified envelopes were assessed after resuspending cells pellets in buffer containing sodium dodecyl sulfate ("SDS") and dithiothreitol ("DTT"). CE formation induced by TPA or high calcium-containing media was expressed as CE/viable cells and each treatment group was compared to its appropriate control group.

The mark [4] stands for this setting: concentration of <10 mM, NHEK cells.

SMILES strings stand for the structures. pIC50: −log10 of the molar value.

Chain of Myosin light chain kinase (MLCK) (Q15746 whole entry): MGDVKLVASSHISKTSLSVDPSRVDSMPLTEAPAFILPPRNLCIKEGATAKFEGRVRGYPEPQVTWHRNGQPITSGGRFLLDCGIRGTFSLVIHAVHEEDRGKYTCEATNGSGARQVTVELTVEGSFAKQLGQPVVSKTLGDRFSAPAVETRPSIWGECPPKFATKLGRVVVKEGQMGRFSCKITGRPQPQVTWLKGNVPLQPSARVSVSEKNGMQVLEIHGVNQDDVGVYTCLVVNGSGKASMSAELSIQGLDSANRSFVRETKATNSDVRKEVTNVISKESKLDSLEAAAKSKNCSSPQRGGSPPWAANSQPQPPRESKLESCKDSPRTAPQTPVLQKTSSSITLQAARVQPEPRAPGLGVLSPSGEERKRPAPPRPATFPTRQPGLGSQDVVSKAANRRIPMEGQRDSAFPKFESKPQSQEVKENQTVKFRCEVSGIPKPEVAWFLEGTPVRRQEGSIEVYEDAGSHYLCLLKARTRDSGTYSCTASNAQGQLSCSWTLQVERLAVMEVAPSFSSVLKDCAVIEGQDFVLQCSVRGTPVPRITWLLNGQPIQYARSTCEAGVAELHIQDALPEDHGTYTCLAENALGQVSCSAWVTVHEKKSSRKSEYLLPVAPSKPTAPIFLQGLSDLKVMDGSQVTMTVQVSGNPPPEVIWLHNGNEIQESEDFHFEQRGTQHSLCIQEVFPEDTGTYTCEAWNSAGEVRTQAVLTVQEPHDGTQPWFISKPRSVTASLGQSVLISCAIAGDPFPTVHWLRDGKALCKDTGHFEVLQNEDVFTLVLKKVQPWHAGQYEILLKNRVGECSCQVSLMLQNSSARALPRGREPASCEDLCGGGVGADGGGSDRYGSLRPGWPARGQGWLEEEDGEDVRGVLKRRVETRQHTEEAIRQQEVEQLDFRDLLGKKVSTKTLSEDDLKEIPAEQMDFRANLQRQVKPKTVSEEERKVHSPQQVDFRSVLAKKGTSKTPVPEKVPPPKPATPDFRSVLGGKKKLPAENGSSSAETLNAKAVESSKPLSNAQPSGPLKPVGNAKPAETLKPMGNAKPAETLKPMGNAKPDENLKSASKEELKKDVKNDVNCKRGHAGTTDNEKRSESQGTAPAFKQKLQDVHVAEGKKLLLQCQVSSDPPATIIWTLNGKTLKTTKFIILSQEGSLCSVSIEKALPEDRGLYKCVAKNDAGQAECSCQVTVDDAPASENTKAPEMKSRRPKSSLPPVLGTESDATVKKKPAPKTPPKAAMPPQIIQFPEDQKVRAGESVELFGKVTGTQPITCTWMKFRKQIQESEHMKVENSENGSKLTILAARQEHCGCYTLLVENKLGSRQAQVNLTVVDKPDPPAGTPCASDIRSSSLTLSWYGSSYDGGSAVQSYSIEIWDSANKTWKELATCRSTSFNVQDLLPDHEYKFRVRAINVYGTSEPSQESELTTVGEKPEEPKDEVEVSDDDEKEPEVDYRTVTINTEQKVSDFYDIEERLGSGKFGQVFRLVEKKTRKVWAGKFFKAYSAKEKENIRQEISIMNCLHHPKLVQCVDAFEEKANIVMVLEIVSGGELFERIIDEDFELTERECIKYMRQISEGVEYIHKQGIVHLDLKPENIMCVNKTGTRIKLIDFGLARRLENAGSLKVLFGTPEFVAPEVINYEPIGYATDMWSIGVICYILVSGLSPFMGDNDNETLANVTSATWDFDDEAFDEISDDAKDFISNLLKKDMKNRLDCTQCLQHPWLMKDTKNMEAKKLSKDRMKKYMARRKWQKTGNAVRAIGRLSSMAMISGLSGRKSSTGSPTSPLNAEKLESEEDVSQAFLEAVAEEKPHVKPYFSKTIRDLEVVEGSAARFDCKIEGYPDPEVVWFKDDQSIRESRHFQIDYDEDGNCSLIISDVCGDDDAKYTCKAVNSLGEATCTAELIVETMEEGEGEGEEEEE

For the compound `COC1C([N+](C)(C)[O-])CC2OC1(C)n1c3ccccc3c3c4c(c5c6ccccc6n2c5c31)C(=O)NC4` (stereo not drawn) [Example 1, 4′ N-methyl-N-oxide of staurosporine], the pIC50 (as a rule, the IC50 on a negative log10 scale, so that one unit is a factor of ten) in series [1] was 7.47. For the same compound, in series [2], the negative logarithm of the IC50 (pIC50) is 8.51 and the MLCK/PKC was found to be 11.

`COC1C([N+](C)([O-])Cc2ccccc2)CC2OC1(C)n1c3ccccc3c3c4c(c5c6ccccc6n2c5c31)C(=O)NC4` (stereo not drawn) [Example 11, 4′-N-benzyl-N-oxide of staurosporine]: the pIC50 in series [1] is 7.26; in series [2], 7.48. Moreover, the MLCK/PKC in series [2] came out at 16.7. Further, the “CE formation induced by high calcium-containing media” value in series [3] (500 (unit uncertain) concentration, NHEK cells, 48 hours) was determined as 71%; in series [3] (1000 (unit uncertain) concentration, NHEK cells, 48 hours) it was 74%. Besides, the “TPA-induced CE formation” value in series [3] (concentration of 250 mM, TPA-treated NHEK cells, 48 hours) is “antagonizes”.

For the compound `CCOC(=O)/C=C(C)/C=C/C=C(C)/C=C/c1c(C)cc(OC)c(C)c1C` [etretinate, reference compound], the “cornified envelope formation / keratinocyte cornification” value in series [3] (human keratinocytes, no concentration given) is reported as “inhibition of keratinocyte cornification”.

On to `CN[C@@H]1C[C@H]2O[C@@](C)([C@@H]1OC)n1c3ccccc3c3c4c(c5c6ccccc6n2c5c31)C(=O)NC4` [Staurosporine, staurosporine], for which, in series [3] (setting [4]), the CE formation entry is listed as “potently inhibited” and the cytotoxicity result is on record as “cytotoxicity was observed”.
